Results published in the NIST ThermoML archive (doi:10.1016/j.tca.2017.10.003).
± gives the expanded uncertainty stated by the source.

How the values were obtained:
[1] = Crystal; DTA
[2] = Molar enthalpy of transition or fusion; details: DSC

For CCCCCCCCCCCCO [dodecan-1-ol], the Normal melting temperature [1] was 23.00 ± 5 °C and the “Molar enthalpy of transition or fusion” value ([2]; Crystal) was 8.33 ± 0.526 kcal/mol.
For CCCCCCCCCCCCCCO [1-tetradecanol], the Normal melting temperature [1] was 36.00 ± 5 °C and the “Molar enthalpy of transition or fusion” value ([2]; Crystal) was 12.3 ± 0.765 kcal/mol.
For CCCCCCCCCCO [decan-1-ol], the Normal melting temperature [1] was 3.00 ± 5 °C and the “Molar enthalpy of transition or fusion” value ([2]; Crystal) was 7.79 ± 0.502 kcal/mol.
In the case of CCCCCCCCCCCCCCOC(=O)OCCCCCCCCCCCCCC [ditetradecyl carbonate], the Normal melting temperature [1] is reported as 35.00 ± 6 °C and the “Molar enthalpy of transition or fusion” value ([2]; Crystal) is reported as 22.6 ± 1.41 kcal/mol.
For CCCCCCCCCCCCCCCCCCO [1-octadecanol], the Normal melting temperature [1] was 54.00 ± 5 °C and the “Molar enthalpy of transition or fusion” value ([2]; Crystal) was 16.2 ± 1.03 kcal/mol.
With CCCCCCCC/C=C\CCCCCCCCO [(Z)-9-octadecen-1-ol] the Normal melting temperature [1] was -1.00 ± 5 °C and the “Molar enthalpy of transition or fusion” value ([2]; Crystal) was 8.41 ± 0.502 kcal/mol.
For CCCCCCCCCCOC(=O)OCCCCCCCCCC [didecyl carbonate], the Normal melting temperature [1] was -1.00 ± 6 °C and the “Molar enthalpy of transition or fusion” value ([2]; Crystal) was 11.9 ± 0.741 kcal/mol.
With CCCCCCCC/C=C\CCCCCCCCOC(=O)OCCCCCCCC/C=C\CCCCCCCC [dioleyl carbonate] the Normal melting temperature [1] was -4.00 ± 6 °C and the “Molar enthalpy of transition or fusion” value ([2]; Crystal) was 13.5 ± 0.813 kcal/mol.
In the case of CCCCCCCCCCCCCCCCO [1-hexadecanol], the Normal melting temperature [1] is reported as 48.00 ± 5 °C and the “Molar enthalpy of transition or fusion” value ([2]; Crystal 2) is reported as 13.1 ± 0.813 kcal/mol.
For CCCCCCCCCCCCCCCCOC(=O)OCCCCCCCCCCCCCCCC [dihexadecyl carbonate], the Normal melting temperature [1] was 47.00 ± 6 °C and the “Molar enthalpy of transition or fusion” value ([2]; Crystal) was 23.7 ± 1.46 kcal/mol.
In the case of CCCCCCCCCCCCOC(=O)OCCCCCCCCCCCC [didodecyl carbonate], the Normal melting temperature [1] is reported as 21.00 ± 6 °C and the “Molar enthalpy of transition or fusion” value ([2]; Crystal) is reported as 16.6 ± 1.05 kcal/mol.
With CCCCCCCCCCCCCCCCCCOC(=O)OCCCCCCCCCCCCCCCCCC [dioctadecyl carbonate] the Normal melting temperature [1] was 50.00 ± 6 °C and the “Molar enthalpy of transition or fusion” value ([2]; Crystal) was 24.3 ± 1.48 kcal/mol.
